Measurements: patent publication US12077503B2, “Substituted cyclic amides and their use as herbicides” (FMC CORPORATION, priority 2015, dated 2024)
Read-outs that look alike come from different tables or passages of the source.

Key:
Format in all cases: in vivo
[1] = test system: barnyardgrass (Echinochloa crus-galli); assay: Test B flooded paddy test; conditions: Echinochloa crus-galli, Flood, 250 g ai/ha; scale of 0 to 100 where 0 is no effect and 100 is complete control; read-out: Barnyardgrass plant response rating
Procedure, shortened: (§1)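 Plants at 2-leaf stage flooded to 3 cm above soil, with compounds applied directly to paddy water and that depth maintained. Plants kept in greenhouse 13–15 d. Visual rating versus controls on a 0 (no effect) to 100 (complete control) scale.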

[2] = test system: ducksalad (Heteranthera limosa); assay: Test B flooded paddy test; conditions: Heteranthera limosa, Flood, 250 g ai/ha; scale of 0 to 100 where 0 is no effect and 100 is complete control; read-out: Ducksalad plant response rating
Procedure, shortened: as §1

[3] = test system: rice (Oryra sativa); assay: Test B flooded paddy test; conditions: Oryza sativa, Flood, 250 g ai/ha; scale of 0 to 100 where 0 is no effect and 100 is complete control; read-out: Rice plant response rating
Procedure, shortened: as §1

[4] = test system: sedge, umbrella (small-flower umbrella sedge, Cyperus difformis); assay: Test B flooded paddy test; conditions: Cyperus difformis, Flood, 250 g ai/ha; scale of 0 to 100 where 0 is no effect and 100 is complete control; read-out: Sedge, Umbrella plant response rating
Procedure, shortened: as §1

[5] = test system: barnyardgrass (Echinochloa crus-galli); assay: Test A preemergence; conditions: Echinochloa crus-galli, pre-emergence, 240 h; for pest or weed control at 125 g/ha: 125 g ai/ha, visual rating after approx. 10 d, 0 to 100 scale where 0 is no effect and 100 is complete control; for pest or weed control at 500 g/ha: 500 g ai/ha
Procedure, shortened: (§2)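 In a loam soil and sand blend, planted seeds got a preemergence directed soil spray, and young plants at the one- to two-leaf stage, 2–10 cm high, got a postemergence application; ~10 d greenhouse hold; injury rated visually, 0 = none, 100 = complete control.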

[6] = test system: Kochia (Kochia scoparia); assay: Test A preemergence; conditions: Bassia scoparia, pre-emergence, 240 h; for pest or weed control at 125 g/ha: 125 g ai/ha, visual rating after approx. 10 d, 0 to 100 scale where 0 is no effect and 100 is complete control; for pest or weed control at 500 g/ha: 500 g ai/ha
Procedure, shortened: as §2

[7] = test system: ragweed (common ragweed, Ambrosia elatior); assay: Test A preemergence; conditions: Ambrosia artemisiifolia, pre-emergence, 240 h; for pest or weed control at 125 g/ha: 125 g ai/ha, visual rating after approx. 10 d, 0 to 100 scale where 0 is no effect and 100 is complete control; for pest or weed control at 500 g/ha: 500 g ai/ha
Procedure, shortened: as §2

[8] = test system: pigweed (Amaranthus retroflexus); assay: Test A preemergence; conditions: Amaranthus retroflexus, pre-emergence, 240 h; for pest or weed control at 125 g/ha: 125 g ai/ha, visual rating after approx. 10 d, 0 to 100 scale where 0 is no effect and 100 is complete control; for pest or weed control at 500 g/ha: 500 g ai/ha
[9] = test system: ryegrass, Italian (Italian ryegrass, Lolium multiflorum); assay: Test A preemergence; conditions: Lolium multiflorum, pre-emergence, 240 h; for pest or weed control at 125 g/ha: 125 g ai/ha, visual rating after approx. 10 d, 0 to 100 scale where 0 is no effect and 100 is complete control; for pest or weed control at 500 g/ha: 500 g ai/ha
Procedure, shortened: as §2

[10] = test system: giant foxtail (Setaria faberii); assay: Test A preemergence; conditions: Setaria faberi, pre-emergence, 240 h; for pest or weed control at 125 g/ha: 125 g ai/ha, visual rating after approx. 10 d, 0 to 100 scale where 0 is no effect and 100 is complete control; for pest or weed control at 500 g/ha: 500 g ai/ha
Procedure, shortened: as §2

[11] = test system: wheat (Triticum aestivum); assay: Test A postemergence; conditions: Triticum aestivum, post-emergence, 240 h, 125 g ai/ha, postemergence; visual injury after approximately 10 d; 0 to 100 scale (0 no effect, 100 complete control); read-out: Plant response rating, Wheat
Procedure, shortened: as §2

[12] = test system: pigweed (Amaranthus retroflexus); assay: Test A postemergence; conditions: Amaranthus retroflexus, post-emergence, 240 h, 125 g ai/ha, postemergence; visual injury after approximately 10 d; 0 to 100 scale (0 no effect, 100 complete control); read-out: Plant response rating, Pigweed
Procedure, shortened: as §2

[13] = test system: blackgrass (Alopecurus myosuroides); assay: Test A postemergence; conditions: Alopecurus myosuroides, post-emergence, 240 h, 125 g ai/ha, postemergence; visual injury after approximately 10 d; 0 to 100 scale (0 no effect, 100 complete control); read-out: Plant response rating, Blackgrass
Procedure, shortened: as §2

[14] = test system: ryegrass, Italian (Italian ryegrass, Lolium multiflorum); assay: Test A postemergence; conditions: Lolium multiflorum, post-emergence, 240 h, 125 g ai/ha, postemergence; visual injury after approximately 10 d; 0 to 100 scale (0 no effect, 100 complete control); read-out: Plant response rating, Ryegrass, Italian
Procedure, shortened: as §2

[15] = test system: giant foxtail (Setaria faberii); assay: Test A postemergence; conditions: Setaria faberi, post-emergence, 240 h, 125 g ai/ha, postemergence; visual injury after approximately 10 d; 0 to 100 scale (0 no effect, 100 complete control); read-out: Plant response rating, Foxtail, Giant
Procedure, shortened: as §2

[16] = preemergence, read-out: Plant response rating, Barnyardgrass
[17] = preemergence, read-out: Plant response rating, Kochia
[18] = preemergence, read-out: Plant response rating, Ragweed
[19] = preemergence, read-out: Plant response rating, Pigweed
[20] = preemergence, read-out: Plant response rating, Ryegrass, Italian
[21] = preemergence, read-out: Plant response rating, Foxtail, Giant

SMILES | pest or weed control at 250 g/ha [1] [%] | pest or weed control at 250 g/ha [2] [%] | pest or weed control at 250 g/ha [3] [%] | pest or weed control at 250 g/ha [4] [%] | pest or weed control at 125 g/ha [5, 16] [%] | pest or weed control at 125 g/ha [6, 17] [%] | pest or weed control at 125 g/ha [7, 18] [%] | pest or weed control at 125 g/ha [8, 19] [%] | pest or weed control at 125 g/ha [9, 20] [%] | pest or weed control at 125 g/ha [10, 21] [%] | plant injury at 125 g/ha [11] [%] | pest or weed control at 125 g/ha [12] [%] | pest or weed control at 125 g/ha [13] [%] | pest or weed control at 125 g/ha [14] [%] | pest or weed control at 125 g/ha [15] [%] | other results
CC(F)(F)c1cccc([C@H]2CNC(=O)[C@@H]2C(=O)Nc2ccc(F)cc2F)c1 [Compound 781] | 65 | 100 | 0 | 0 | 80 | 50 | 0 | 0 | 20 | 90 | 50 | 0 | 70 | 20 | 80 | pest or weed control at 500 g/ha ([5]; Preemergence, visual injury vs untreated controls after approximately 10 d, read-out: Barnyardgrass plant response rating (0 to 100 scale where 0 is no effect and 100 is complete control)): 100%; pest or weed control at 500 g/ha ([6]; Preemergence, visual injury vs untreated controls after approximately 10 d, read-out: Kochia plant response rating (0 to 100 scale where 0 is no effect and 100 is complete control)): 90%; pest or weed control at 500 g/ha ([7]; Preemergence, visual injury vs untreated controls after approximately 10 d, read-out: Ragweed plant response rating (0 to 100 scale where 0 is no effect and 100 is complete control)): 0%; pest or weed control at 500 g/ha ([8]; Preemergence, visual injury vs untreated controls after approximately 10 d, read-out: Pigweed plant response rating (0 to 100 scale where 0 is no effect and 100 is complete control)): 70%; pest or weed control at 500 g/ha ([9]; Preemergence, visual injury vs untreated controls after approximately 10 d, read-out: Ryegrass, Italian plant response rating (0 to 100 scale where 0 is no effect and 100 is complete control)): 50%; pest or weed control at 500 g/ha ([10]; Preemergence, visual injury vs untreated controls after approximately 10 d, read-out: Foxtail, Giant plant response rating (0 to 100 scale where 0 is no effect and 100 is complete control)): 100%
CCc1cc(CC)cc([C@H]2CN(C)C(=O)[C@@H]2C(=O)Nc2ccccc2C(F)(F)F)c1 [Compound 737] | 0 | 0 | 0 | 0 | 70 | 40 | 0 | 0 | 40 | 90 | 40 | 20 | 30 | 50 | 70 | pest or weed control at 500 g/ha ([5]; preemergence, 0 to 100 scale, 0 = no effect, 100 = complete control, read-out: Plant response rating, Barnyardgrass): 80%; pest or weed control at 500 g/ha ([6]; preemergence, 0 to 100 scale, 0 = no effect, 100 = complete control, read-out: Plant response rating, Kochia): 50%; pest or weed control at 500 g/ha ([7]; preemergence, 0 to 100 scale, 0 = no effect, 100 = complete control, read-out: Plant response rating, Ragweed): 0%; pest or weed control at 500 g/ha ([8]; preemergence, 0 to 100 scale, 0 = no effect, 100 = complete control, read-out: Plant response rating, Pigweed): 0%; pest or weed control at 500 g/ha ([9]; preemergence, 0 to 100 scale, 0 = no effect, 100 = complete control, read-out: Plant response rating, Ryegrass, Italian): 70%; pest or weed control at 500 g/ha ([10]; preemergence, 0 to 100 scale, 0 = no effect, 100 = complete control, read-out: Plant response rating, Foxtail, Giant): 90%
